Data taken from ChEMBL document CHEMBL5244223, “l,8-Naphthalimide based DNA intercalators and anticancer agents. A systematic review from 2007 to 2017” (Eur J Med Chem, 2018).
pIC50: −log10 of the molar value.

Experiments:
[1] = system: HepG2; assay: Antiproliferative activity against human HepG2 cells assessed as inhibition of cell proliferation incubated for 48 hrs by MTT assay; assay type: functional, cell-based; details: HepG2, 48 h
[2] = system: K562; assay: Antiproliferative activity against human K562 cells assessed as inhibition of cell proliferation incubated for 48 hrs by MTT assay; assay type: functional, cell-based; details: K562, 48 h
[3] = system: MDA-MB-231; assay: Antiproliferative activity against human MDA-MB-231 cells assessed as inhibition of cell proliferation incubated for 48 hrs by MTT assay; assay type: functional, cell-based; details: MDA-MB-231, 48 h
[4] = system: HCT-116; assay: Antiproliferative activity against human HCT-116 cells assessed as inhibition of cell proliferation incubated for 48 hrs by MTT assay; assay type: functional, cell-based; details: HCT-116, 48 h
[5] = Antiproliferative activity against human QSG7701 cells assessed as inhibition of cell proliferation incubated for 48 hrs by MTT assay; assay type: toxicity, cell-based
[6] = system: SMMC-7721; assay: Antiproliferative activity against human SMMC-7721 cells assessed as inhibition of cell proliferation incubated for 48 hrs by MTT assay; assay type: functional, cell-based; details: SMMC-7721, 48 h
[7] = system: Bel-7402; assay: Cytotoxicity against human Bel-7402 cells assessed as inhibition of cell growth incubated for 48 hrs by MTT assay; assay type: functional, cell-based; details: Bel-7402, 48 h
[8] = Cytotoxicity against human QSG7701 cells assessed as inhibition of cell growth incubated for 48 hrs by MTT assay; assay type: toxicity, cell-based
[9] = system: Candida albicans; assay: Antifungal activity against Candida albicans MTCC 227 assessed as zone of inhibition at 100 ug/ml by well diffusion assay; assay type: functional; details: read-out: IZ
[10] = system: Saccharomyces cerevisiae; assay: Antifungal activity against Saccharomyces cerevisiae MTCC 36 assessed as zone of inhibition at 100 ug/ml by well diffusion assay; assay type: functional; details: read-out: IZ
[11] = system: Pseudomonas aeruginosa; assay: Antibacterial activity against Pseudomonas aeruginosa MTCC 741 assessed as zone of inhibition at 50 ug/ml by well diffusion assay; assay type: functional; details: read-out: IZ
[12] = system: Escherichia coli; assay: Antibacterial activity against Escherichia coli MTCC 443 assessed as zone of inhibition at 50 ug/ml by well diffusion assay; assay type: functional; details: read-out: IZ
[13] = system: Aspergillus niger; assay: Antifungal activity against Aspergillus niger MTCC 282 assessed as zone of inhibition at 100 ug/ml by well diffusion assay; assay type: functional; details: read-out: IZ
[14] = system: Staphylococcus epidermidis; assay: Antibacterial activity against Staphylococcus epidermidis MTCC 435 assessed as zone of inhibition at 50 ug/ml by well diffusion assay; assay type: functional; details: read-out: IZ
[15] = system: Rhizopus arrhizus; assay: Antifungal activity against Rhizopus oryzae MTCC 262 assessed as zone of inhibition at 100 ug/ml by well diffusion assay; assay type: functional; details: read-out: IZ
[16] = system: Staphylococcus aureus; assay: Antibacterial activity against Staphylococcus aureus MTCC 96 assessed as zone of inhibition at 50 ug/ml by well diffusion assay; assay type: functional; details: read-out: IZ

| Structure (SMILES) | pIC50 [1] | pIC50 [2] | pIC50 [3] | pIC50 [4] | IC50 at 48 h [5] | pIC50 [6] | pIC50 [7] | IC50 at 48 h [8] | zone of inhibition at 100 µg/mL [9] | zone of inhibition at 100 µg/mL [10] | zone of inhibition at 50 µg/mL [11] | zone of inhibition at 50 µg/mL [12] | zone of inhibition at 100 µg/mL [13] | zone of inhibition at 50 µg/mL [14] | zone of inhibition at 100 µg/mL [15] | zone of inhibition at 50 µg/mL [16] |
| --- | --- | --- | --- | --- | --- | --- | --- | --- | --- | --- | --- | --- | --- | --- | --- | --- |
| CN(C)CCN1C(=O)c2cccc3cc(NC(=O)CNCCCNCCCNCCCN)cc(c23)C1=O | 5.19 | 5.19 | 5.19 | 5.19 | 6.42 µM | 5.19 | – | – | – | – | – | – | – | – | – | – |
| NCCCNCCCNCCCN1C(=O)c2cccc3cc(N)cc(c23)C1=O | – | – | – | – | – | – | 5.97 | > 50 µM | – | – | – | – | – | – | – | – |
| CCC1=C(C(=O)Oc2ccccc2)C(CN2C(=O)c3cccc4cccc(c34)C2=O)NC(=S)N1 (configuration not stated) | – | – | – | – | – | – | – | – | 12 mm | 12 mm | 12 mm | 12 mm | 12 mm | 15 mm | 12 mm | 15 mm |
| NCCCNCCCCNCCCN1C(=O)c2cccc3c(Cl)ccc(c23)C1=O | – | – | – | – | – | – | 5.97 | > 50 µM | – | – | – | – | – | – | – | – |
| CN(C)CCN1C(=O)c2cccc3cc(NC(=O)CNCCCN)cc(c23)C1=O | 5.19 | 5.19 | 5.19 | 5.19 | 6.42 µM | 5.19 | – | – | – | – | – | – | – | – | – | – |
| CCCC1=C(C(=O)OC)C(CN2C(=O)c3cccc4cccc(c34)C2=O)NC(=S)N1 (configuration not stated) | – | – | – | – | – | – | – | – | 12 mm | 12 mm | 12 mm | 12 mm | 12 mm | 15 mm | 12 mm | 15 mm |
| CCC1=C(C(=O)OC(F)(F)F)C(CN2C(=O)c3cccc4cccc(c34)C2=O)NC(=O)N1 (configuration not stated) | – | – | – | – | – | – | – | – | 12 mm | 12 mm | 12 mm | 12 mm | 12 mm | 15 mm | 12 mm | 15 mm |
| NCCCCNCCCCNCCCN1C(=O)c2cccc3cccc(c23)C1=O | – | – | – | – | – | – | 5.97 | > 50 µM | – | – | – | – | – | – | – | – |
| NCCCCNCCCCNCCCCN1C(=O)c2cccc3cc([N+](=O)[O-])cc(c23)C1=O | – | – | – | – | – | – | 5.97 | > 50 µM | – | – | – | – | – | – | – | – |
| CN(C)CCN1C(=O)c2cccc3cc(NC(=O)CNCCCNCCCCNCCCN)cc(c23)C1=O | 5.19 | 5.19 | 5.19 | 5.19 | 6.42 µM | 5.19 | – | – | – | – | – | – | – | – | – | – |
| CN(C)CCN1C(=O)c2cccc3cc(NC(=O)NCCCCN)cc(c23)C1=O | < 4.30 | < 4.30 | < 4.30 | < 4.30 | > 50 µM | < 4.30 | – | – | – | – | – | – | – | – | – | – |
| NCCCNCCCCNCCCN1C(=O)c2cccc3cc([N+](=O)[O-])cc(c23)C1=O | – | – | – | – | – | – | 5.97 | > 50 µM | – | – | – | – | – | – | – | – |
| CN(C)CCNC(=O)Nc1cc2c3c(cccc3c1)C(=O)N(CCN(C)C)C2=O | < 4.30 | 5.06 | < 4.30 | 5.06 | > 50 µM | 5.06 | – | – | – | – | – | – | – | – | – | – |
| CCC1=C(C(=O)OC)C(CN2C(=O)c3cccc4cccc(c34)C2=O)NC(=S)N1 (configuration not stated) | – | – | – | – | – | – | – | – | 12 mm | 12 mm | 12 mm | 12 mm | 12 mm | 15 mm | 12 mm | 15 mm |
| CCC1=C(C(=O)OC(F)(F)F)C(CN2C(=O)c3cccc4cccc(c34)C2=O)NC(=S)N1 (configuration not stated) | – | – | – | – | – | – | – | – | 12 mm | 12 mm | 12 mm | 12 mm | 12 mm | 15 mm | 12 mm | 15 mm |
| CN(C)CCN1C(=O)c2cccc3cc(NC(=O)NCCCNCCCNCCCCN)cc(c23)C1=O | < 4.30 | < 4.30 | < 4.30 | < 4.30 | > 50 µM | < 4.30 | – | – | – | – | – | – | – | – | – | – |
| CCCC1=C(C(=O)OC)C(CN2C(=O)c3cccc4cccc(c34)C2=O)NC(=O)N1 (configuration not stated) | – | – | – | – | – | – | – | – | 12 mm | 12 mm | 12 mm | 12 mm | 12 mm | 15 mm | 12 mm | 15 mm |
| CCOC(=O)C1=C(CC)NC(=S)NC1CN1C(=O)c2cccc3cccc(c23)C1=O (configuration not stated) | – | – | – | – | – | – | – | – | 12 mm | 12 mm | 12 mm | 12 mm | 12 mm | 15 mm | 12 mm | 15 mm |
